The source of these data is ChEMBL document CHEMBL2401610, “N-Benzyloxycarbonyl-S-(2,4-dinitrophenyl)glutathione dibutyl diester is inhibitory to melarsoprol resistant cell lines overexpressing the T. bruceiMRPA transporter” (Bioorg Med Chem Lett, 2013).

In experiment [1] the test system is Trypanosoma brucei brucei. Description: Resistant factor, ratio of IC50 for bloodstream form of Trypanosoma brucei brucei expressing TbMRPA protein to IC50 for bloodstream form of wild type Trypanosoma brucei 247. It is filed as functional.
The subject of experiment [2] is Trypanosoma brucei brucei. The experiment can be described thus: Antitrypanosomal activity against bloodstream form of Trypanosoma brucei brucei expressing TbMRPA protein after 3 days by microplate assay. It is filed as functional, organism-based. The following applies: 72 h.
The subject of experiment [3] is Trypanosoma brucei brucei. The experiment can be described thus: Antitrypanosomal activity against bloodstream form of wild type Trypanosoma brucei brucei 247 after 3 days by microplate assay. It is filed as functional, organism-based. Particulars: Trypanosoma brucei, 247, 72 h.

pIC50: −log10 of the molar value.

Broadly, the pIC50 is −log10 of the IC50, conventionally taken in molar units. Low values mean a high IC50, high ones a low IC50. As to `CCCCOC(=O)CNC(=O)[C@H](CSc1ccc([N+](=O)[O-])cc1[N+](=O)[O-])NC(=O)CC[C@H](NC(=O)OCc1ccccc1)C(=O)OCCCC`, the “Ratio IC50” value in experiment [1] is on record as 1.4. In addition, the pIC50 in experiment [2] is 5.19; in experiment [3] it was 5.35.

Regarding `COC(=O)CNC(=O)[C@H](CSC(=O)c1ccc(Br)cc1)NC(=O)CC[C@H](NC(=O)OCc1ccccc1)C(=O)OC`, the “Ratio IC50” value in experiment [1] is recorded as 16.6. Moreover, the pIC50 is 4.24 in experiment [2] and 5.46 in experiment [3].

Take `O=C(O)CNC(=O)[C@H](CSC(=O)c1ccc(Br)cc1)NC(=O)CC[C@H](NC(=O)OCc1ccccc1)C(=O)O`: in experiment [1], the “Ratio IC50” value is 182. Moreover, the pIC50 was 3.11 in experiment [2] and 5.37 in experiment [3].

For the compound `N[C@@H](CCC(=O)N[C@@H](CSC(=O)c1ccc(Br)cc1)C(=O)NCC(=O)O)C(=O)O`, the “Ratio IC50” value in experiment [1] is recorded as 1.8. For the same compound, the pIC50 was 3.79 in experiment [2] and 4.06 in experiment [3].

Regarding `Nc1nc(N)nc(Nc2ccc([As]3SCC(CO)S3)cc2)n1` (stereo not drawn) [MELARSOPROL], in experiment [1], the “Ratio IC50” value stood at 10.
